Key:
[1] = Plasma PK after multiple oral doses (Cycle 1 Day 28); type: in vivo, patients
Procedure: The period during which patients received a single dose is designated as cycle 0 (C0), lasting 72 h. After this period, patients begin multiple dosing, referred to as cycle 1 (C1). An initial accelerated titration design was employed for the three lowest dose groups, and the “3+3” design was applied starting with the 300 mg BID cohort. […] Single-dose and multiple-dose PK parameters included C max, T max, elimination half-life (T 1/2), AUC0- t , AUC0-inf, oral clearance (CL/F), and apparent volume of distribution (V z/F) for CVL218. Tumor response was assessed per RECIST 1.1. ORR was defined as proportion of patients with a CR or PR on at least one visit, while DCR was defined as proportion of patients with a CR or PR or SD. PFS was defined as the time from the first dose of either drug to investigator assessed radiologic PD or to death of any cause. PFS would be censored at the time of last tumor assessment. Subjects who received at least one dose of CVL218 with postadministration safety records were included in safety analysis set. Subjects who received at least one dose of CVL218 with at least one evaluable PK parameter were included in PK analysis set. Per-protocol set were used for efficacy analysis. Descriptive statistics of safety were presented per CTCAE v5.0. The PK parameters T max and T 1/2 were shown as the median (min, max) and mean ± SD, respectively. A two-sided p < 0.05 was considered to indicate statistical significance. Statistical analysis was performed by using GraphPad prism 8.0.2 and R-4.3.3.

[2] = system: human ether‐a‐go‐go‐related gene channel; parameters: method as in PMID 27926532, PMID 36283983; details: cited from earlier work
[3] = multiple doses C1D28, 50mg BID, n 1
[4] = multiple doses C1D28, 100mg BID, n 1
[5] = multiple doses C1D28, 200mg BID, n 1
[6] = multiple doses C1D28, 350mg BID, n 4
[7] = multiple doses C1D28, 500mg BID, n 4
[8] = multiple doses C1D28, 600mg BID, n 4
[9] = multiple doses C1D28, 700mg BID, n 6
[10] = multiple doses C1D28, 850mg BID, n 5

CNCc1ccc(-c2cc3cc(F)cc(C(N)=O)c3o2)cc1.Cl [CVL218]
AUC0-24, Geometric Mean [1, 3]: 70.9 ng·h/mL | AUC0-t, Geometric Mean [1, 3]: 77.9 ng·h/mL | AUC_TAU, Mean [1, 3]: 70.9 ng·h/mL | Cavgss, Mean [1, 3]: 5.91 ng/mL | Cl/F, Geometric Mean [1, 3]: 705000.0 mL/h | Cmax, Geometric Mean [1, 3]: 15.6 ng/mL | Cminss, Mean [1, 3]: 0 ng/mL | Vz/F, Geometric Mean [1, 3]: 6870000.0 mL | AUC0-24, Geometric Mean [1, 4]: 822.0 ng·h/mL | AUC0-t, Geometric Mean [1, 4]: 1930.0 ng·h/mL | AUC_TAU, Mean [1, 4]: 822 ng·h/mL | Cavgss, Mean [1, 4]: 68.5 ng/mL | Cl/F, Geometric Mean [1, 4]: 122000.0 mL/h | Cmax, Geometric Mean [1, 4]: 148.0 ng/mL | Cminss, Mean [1, 4]: 38 ng/mL | Vz/F, Geometric Mean [1, 4]: 1750000.0 mL | AUC0-24, Geometric Mean [1, 5]: 808.0 ng·h/mL | AUC0-t, Geometric Mean [1, 5]: 1360.0 ng·h/mL | AUC_TAU, Mean [1, 5]: 808 ng·h/mL | Cavgss, Mean [1, 5]: 67.3 ng/mL | Cl/F, Geometric Mean [1, 5]: 248000.0 mL/h | Cmax, Geometric Mean [1, 5]: 156.0 ng/mL | Cminss, Mean [1, 5]: 28.6 ng/mL | Vz/F, Geometric Mean [1, 5]: 4780000.0 mL | AUC0-24, Geometric Mean [1, 6]: 2230.0 ng·h/mL | AUC0-inf, Geometric Mean [1, 6]: 5860.0 ng·h/mL | AUC0-t, Geometric Mean [1, 6]: 4750.0 ng·h/mL | AUC_TAU, Mean [1, 6]: 2170 ng·h/mL | Cavgss, Mean [1, 6]: 181 ng/mL | Cl/F, Geometric Mean [1, 6]: 157000.0 mL/h | Cmax, Geometric Mean [1, 6]: 313.0 ng/mL | Cminss, Mean [1, 6]: 72.2 ng/mL | T1/2, Mean [1, 6]: 5.4 h | Vz/F, Geometric Mean [1, 6]: 1400000.0 mL | AUC0-24, Geometric Mean [1, 7]: 3210.0 ng·h/mL | AUC0-inf, Geometric Mean [1, 7]: 6920.0 ng·h/mL | AUC0-t, Geometric Mean [1, 7]: 6830.0 ng·h/mL | AUC_TAU, Mean [1, 7]: 3870 ng·h/mL | Cavgss, Mean [1, 7]: 323 ng/mL | Cl/F, Geometric Mean [1, 7]: 158500.0 mL/h | Cmax, Geometric Mean [1, 7]: 562.5 ng/mL | Cminss, Mean [1, 7]: 177 ng/mL | T1/2, Mean [1, 7]: 4.1 h | Vz/F, Geometric Mean [1, 7]: 1380000.0 mL | AUC0-24, Geometric Mean [1, 8]: 1880.0 ng·h/mL | AUC0-inf, Geometric Mean [1, 8]: 7700.0 ng·h/mL | AUC0-t, Geometric Mean [1, 8]: 2560.0 ng·h/mL | AUC_TAU, Mean [1, 8]: 2810 ng·h/mL | Cavgss, Mean [1, 8]: 234 ng/mL | Cl/F, Geometric Mean [1, 8]: 318000.0 mL/h | Cmax, Geometric Mean [1, 8]: 311.0 ng/mL | Cminss, Mean [1, 8]: 118 ng/mL | T1/2, Mean [1, 8]: 5.1 h | Vz/F, Geometric Mean [1, 8]: 2440000.0 mL | AUC0-24, Geometric Mean [1, 9]: 3830.0 ng·h/mL | AUC0-inf, Geometric Mean [1, 9]: 4170.0 ng·h/mL | AUC0-t, Geometric Mean [1, 9]: 3830.0 ng·h/mL | AUC_TAU, Mean [1, 9]: 4450 ng·h/mL | Cavgss, Mean [1, 9]: 371 ng/mL | Cl/F, Geometric Mean [1, 9]: 183000.0 mL/h | Cmax, Geometric Mean [1, 9]: 660.0 ng/mL | Cminss, Mean [1, 9]: 127 ng/mL | T1/2, Mean [1, 9]: 3.9 h | Vz/F, Geometric Mean [1, 9]: 1090000.0 mL | AUC0-24, Geometric Mean [1, 10]: 5150.0 ng·h/mL | AUC0-inf, Geometric Mean [1, 10]: 2940.0 ng·h/mL | AUC0-t, Geometric Mean [1, 10]: 5150.0 ng·h/mL | AUC_TAU, Mean [1, 10]: 5150 ng·h/mL | Cavgss, Mean [1, 10]: 429 ng/mL | Cl/F, Geometric Mean [1, 10]: 230000.0 mL/h | Cmax, Geometric Mean [1, 10]: 776.0 ng/mL | Cminss, Mean [1, 10]: 194 ng/mL | T1/2, Mean [1, 10]: 4.4 h | Vz/F, Geometric Mean [1, 10]: 1532500.0 mL | median Tmax ([1]; multiple doses, range over cohorts): 1 to 3 h | mean half-life ([1]; multiple oral doses, range over cohorts): 3.9 to 5.4 h | median Tmax ([1]; recommended dose of 700 mg BID): 2 h | inhibitory activity on the hERG channel [2]: without inhibitory activity

From paper PMC12238723, “Phase I Clinical Trial of CVL218, a Novel PARP1/2 Inhibitor, in Patients with Advanced Solid Tumors” (MedComm, 2025)
